Data published in patent US9833520B2, “Labeled, non-peptidic, multivalent integrin antagonist compounds; methods for synthesis and uses thereof” (The Methodist Hospital Research Institute, priority 2011, dated 2017).
Several values for one entry are separate records, joined by “and”; a condition that tells them apart may be missing. Identical values can stand only once. Entries after “also recorded” stand apart in the source; their conditions may differ.

Tests used:
HUVECs = assay: Anti-angiogenic in vitro assay: endothelial tube formation on Matrigel; assay type: cell-based, human; settings: 10 μg/mL, 6 hr
Method: The impact of IA derivatives on capillary-like tube formation by HUVECs was investigated. In vitro endothelial tube formation was performed as described in the literature (Park et al., 2007). Growth factor reduced Matrigel® (100 μL, BD Bioscience, San Jose, Calif., USA) was added to each well of a 96-well plate and allowed to polymerize for 30 min at 37° C. HUVECs were suspended in medium at the density of 4×10^5 cells per milliliter, and 100 μL of the cell suspension was added to each Matrigel-coated well in the presence of IA monomer, dimer and trimer. Cells were incubated at 37° C. for 6 hr, and then photographed at 20× magnification using a Micromaster® phase contrast microscope (Fisher Scientific, Pittsburgh, Pa., USA). The branch points were counted and averaged.

B16F10 melanoma tumor = assay: In vivo antitumor efficacy in B16F10 melanoma tumor-bearing mice; settings: for average tumor volume / tumor volume against control group (PBS = 100%): 14 days; for tumor volume against control group (PBS = 100%): 30 mg/kg i.p. every 12 hours; for reduction in tumor mass compared to control: 30 mg/kg, endpoint
Method: All animal procedures were approved by appropriate Animal Care and Use Committee. The therapeutic test for antitumor efficacy of IA multivalent compounds was evaluated using tumor-bearing mice, which were prepared by bilateral subcutaneous injection in the thighs of nu/nu female mice (6 weeks old; 20-25 g). The mouse melanoma cancer cell line B16F10 was obtained from Caliper and tested negative for rodent pathogens. The cells were maintained in vitro as described above. The mice were inoculated with suspensions of 1×10^6 B16F10 cells in 100 μL complete medium (10% FBS added). Three days after subcutaneous inoculation (the tumor diameter was approximately 3-5 mm, the tumor volume was approximately 50 to 100 mm^3), tumor-bearing mice (n=7 per group) were injected intraperitoneally (i.p.) with each IA compound (monomer, dimer, or trimer) in PBS or PBS alone for control group. All compounds were serially diluted with PBS, and were given 2 times per day (every 12 hr) at a dose of 100 μL of 7.5, 15, 30 mg/kg per injection for 14 days. […] This study design was deliberately chosen to highlight the effect of multivalency. The tumor size was calculated as a×b^2/2, where ‘a’ is the largest and ‘b’ the smallest diameter. In addition, the weight of the mice and the tumors were recorded after harvesting.
A tumor growth model was used to isolate and interpret the effects of pharmacological dose (pharmacophore) and multivalency. This was done using the R software package ‘geepack’ (Højsgaard et al., 2006; Team et al., 2012). The tumor burden (sum of the volumes of left and right tumors) for each animal was first normalized by dividing by the starting volume on the first day of treatment, then taking the logarithm to linearize the data. The pharmacological dose was decoupled from the molecular valency, N, for this model by defining the pharmacophore or pharmacological dose (PD) as PD=N×MD, where MD is the molar dose. The pharmacological excess (compared to monomer) dose (ED) due to multivalency is then: ED=PD-MD=MD×(N−1). The data was fit to a linear model:
All animal procedures were approved by the appropriate regulatory agencies. The therapeutic test for antitumor efficacy of IA multivalent compounds was evaluated using tumor-bearing mice that were prepared by the subcutaneous injection in the dorsa of nu/nu female mice (6 weeks old; 20-25 g). The mouse melanoma cancer cell line B16F10 was obtained from Caliper, and tested negative for rodent pathogens. The cells were maintained in vitro as described above. Mice were inoculated with a suspension of 1×10^6 B16F10 cells in 100 μL complete medium (10% FBS added). Four days after subcutaneous inoculation (the tumor diameter was approximately […], the tumor volume was approximately 50 to 100 mm^3), tumor-bearing mice (n=7 per group) were inoculated intraperitoneally (i.p.) with each IA compound (Monomer, Dimer, Trimer) in PBS or PBS alone for control group. All compounds were serially diluted with PBS and were given 2 times per day (every 12 hr) so that compounds doses would be 100 μL of 7.5, 15, 30 mg/kg (maximum tolerated dose) for 14 days. The tumor size was calculated as: a×b2/2, where a is the largest and b the smallest diameter.

## O=C(NCCS(=O)(=O)N[C@@H](CNC(=O)c1ccc(OCCNC2=NCCCN2)cc1)C(=O)O)OCCN(CCOC(=O)NCCS(=O)(=O)N[C@@H](CNC(=O)c1ccc(OCCNC2=NCCCN2)cc1)C(=O)O)CCOC(=O)NCCS(=O)(=O)N[C@@H](CNC(=O)c1ccc(OCCNC2=NCCCN2)cc1)C(=O)O [IA trimer]
HUVECs
  number of tube branches (control group 100%): 35.6±1.0%
B16F10 melanoma tumor; 15 mg/kg i.p. twice per day
  average tumor volume: 2000 mm^3
B16F10 melanoma tumor; 15 mg/kg, 14 days after start of treatment
  average tumor volume as fraction of PBS-treated control mice: less than ⅓; also recorded: less than one-third
B16F10 melanoma tumor
  tumor volume against control group (PBS = 100%): 32.05%
  reduction in tumor mass compared to control: 71±7%
B16F10 melanoma tumor; 30 mg/kg i.p. twice per day
  average tumor volume: 1800 (s.d. 800) mm^3 and 1800 mm^3
B16F10 melanoma tumor; 7.5, 15, 30 mg/kg twice per day
  survival: all of animals survived for at least 2 weeks
B16F10 melanoma tumor; Example 3, dose not stated
  average tumor volume: 2000 mm^3
B16F10 melanoma tumor; compared to IA-dimer group
  average tumor size smaller than in the IA-dimer group: 1.7 fold
B16F10 melanoma tumor; compared to IA-monomer group
  average tumor size smaller than in the IA-monomer group: 2.3 fold

## NCCS(=O)(=O)N[C@@H](CNC(=O)c1ccc(OCCNC2=NCCCN2)cc1)C(=O)O [IA, 4-[2-(3,4,5,6-tetrahydropyrimidine-2-ylamino)ethyloxy]benzoyl-2-(S)-aminoethylsulfonyl-amino-β-alanine]
HUVECs
  number of tube branches (control group 100%): 86.6±3.4%
B16F10 melanoma tumor
  tumor volume against control group (PBS = 100%): 59.29%
  reduction in tumor mass compared to control: 36±9%
B16F10 melanoma tumor; 30 mg/kg i.p. twice per day
  average tumor volume: 3300 (s.d. 1200) mm^3
B16F10 melanoma tumor; Example 3, dose not stated
  average tumor volume: 5000 mm^3

## NC(CCCCCC(=O)NCCS(=O)(=O)N[C@@H](CNC(=O)c1ccc(OCCNC2=NCCCN2)cc1)C(=O)O)C(=O)NCCS(=O)(=O)N[C@@H](CNC(=O)c1ccc(OCCNC2=NCCCN2)cc1)C(=O)O (some centres unmarked) [bivalent IA]
HUVECs
  number of tube branches (control group 100%): 68.3±2.6%
B16F10 melanoma tumor
  tumor volume against control group (PBS = 100%): 45.33%
B16F10 melanoma tumor; 30 mg/kg i.p. twice per day
  average tumor volume: 2500 (s.d. 1000) mm^3
B16F10 melanoma tumor; listed as dimer
  reduction in tumor mass compared to control: 49±8%
B16F10 melanoma tumor; Example 3, dose not stated
  average tumor volume: 3000 mm^3
